Source: ChEMBL document CHEMBL1201862, “PubChem BioAssay data set” (2004)
Activity calls are given as the source filed them.

Experiments:
Assay type in all cases: functional
[1] = target: Glycogen synthase kinase-3 beta (Homo sapiens, UniProt P49841);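 note: value comes from a broad kinome profiling panel, with GSK3B as the panel member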
[2] = target: Cyclin-dependent kinase 7 (Homo sapiens, UniProt P50613);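 note: value comes from a kinome-wide kinase profiling panel in which CDK7 is one member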
[3] = target: Dual specificity tyrosine-phosphorylation-regulated kinase 1A (Homo sapiens, UniProt Q13627);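 note: measured against DYRK1A as one member of a broad kinome profiling panel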
[4] = target: Protein kinase C theta type (Homo sapiens, UniProt Q04759); experiment: Navigating the Kinome. Panel member name: PRKCQ
[5] = target: T1, Tyrosine-protein kinase JAK3 (Homo sapiens, UniProt P52333)
T1 sequence (P52333 whole entry): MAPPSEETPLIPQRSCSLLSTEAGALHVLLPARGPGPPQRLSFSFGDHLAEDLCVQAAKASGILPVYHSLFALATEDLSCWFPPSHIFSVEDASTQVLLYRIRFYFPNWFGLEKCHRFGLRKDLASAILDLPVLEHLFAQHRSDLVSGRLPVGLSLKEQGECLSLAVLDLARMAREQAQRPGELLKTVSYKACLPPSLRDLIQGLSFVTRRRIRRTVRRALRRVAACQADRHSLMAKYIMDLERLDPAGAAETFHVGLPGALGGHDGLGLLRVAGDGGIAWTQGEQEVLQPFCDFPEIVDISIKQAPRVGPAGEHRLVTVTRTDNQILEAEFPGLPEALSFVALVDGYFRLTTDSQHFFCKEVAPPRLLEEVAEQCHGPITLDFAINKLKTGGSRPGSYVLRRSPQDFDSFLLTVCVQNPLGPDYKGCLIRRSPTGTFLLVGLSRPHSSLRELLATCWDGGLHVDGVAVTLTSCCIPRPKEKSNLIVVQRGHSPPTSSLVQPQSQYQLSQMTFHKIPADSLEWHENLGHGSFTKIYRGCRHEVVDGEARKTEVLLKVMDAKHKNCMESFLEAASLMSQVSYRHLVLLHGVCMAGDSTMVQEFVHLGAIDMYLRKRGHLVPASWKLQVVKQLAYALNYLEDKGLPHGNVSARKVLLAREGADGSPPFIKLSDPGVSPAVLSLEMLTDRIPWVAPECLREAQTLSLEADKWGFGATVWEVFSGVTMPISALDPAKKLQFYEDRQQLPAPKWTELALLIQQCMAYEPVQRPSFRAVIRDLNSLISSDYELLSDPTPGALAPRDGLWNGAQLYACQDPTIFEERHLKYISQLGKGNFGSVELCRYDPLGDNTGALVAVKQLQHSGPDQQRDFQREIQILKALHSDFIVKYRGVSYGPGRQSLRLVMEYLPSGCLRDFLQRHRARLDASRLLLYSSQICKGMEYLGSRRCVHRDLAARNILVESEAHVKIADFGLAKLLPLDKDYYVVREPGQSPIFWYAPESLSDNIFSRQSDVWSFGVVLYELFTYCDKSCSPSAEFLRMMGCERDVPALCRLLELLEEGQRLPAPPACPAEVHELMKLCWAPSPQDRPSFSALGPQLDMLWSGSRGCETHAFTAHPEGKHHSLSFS

[6] = target: Serine/threonine-protein kinase pim-1 (Homo sapiens, UniProt P11309)
[7] = target: T2, Replicative DNA helicase DnaB (Mycobacterium tuberculosis, UniProt P9WMR3); experiment: DnaB intein splicing inhibitors, dose response, biochemical, cell-free fluorescence (AID 449749)
T2 sequence (P9WMR3 whole entry): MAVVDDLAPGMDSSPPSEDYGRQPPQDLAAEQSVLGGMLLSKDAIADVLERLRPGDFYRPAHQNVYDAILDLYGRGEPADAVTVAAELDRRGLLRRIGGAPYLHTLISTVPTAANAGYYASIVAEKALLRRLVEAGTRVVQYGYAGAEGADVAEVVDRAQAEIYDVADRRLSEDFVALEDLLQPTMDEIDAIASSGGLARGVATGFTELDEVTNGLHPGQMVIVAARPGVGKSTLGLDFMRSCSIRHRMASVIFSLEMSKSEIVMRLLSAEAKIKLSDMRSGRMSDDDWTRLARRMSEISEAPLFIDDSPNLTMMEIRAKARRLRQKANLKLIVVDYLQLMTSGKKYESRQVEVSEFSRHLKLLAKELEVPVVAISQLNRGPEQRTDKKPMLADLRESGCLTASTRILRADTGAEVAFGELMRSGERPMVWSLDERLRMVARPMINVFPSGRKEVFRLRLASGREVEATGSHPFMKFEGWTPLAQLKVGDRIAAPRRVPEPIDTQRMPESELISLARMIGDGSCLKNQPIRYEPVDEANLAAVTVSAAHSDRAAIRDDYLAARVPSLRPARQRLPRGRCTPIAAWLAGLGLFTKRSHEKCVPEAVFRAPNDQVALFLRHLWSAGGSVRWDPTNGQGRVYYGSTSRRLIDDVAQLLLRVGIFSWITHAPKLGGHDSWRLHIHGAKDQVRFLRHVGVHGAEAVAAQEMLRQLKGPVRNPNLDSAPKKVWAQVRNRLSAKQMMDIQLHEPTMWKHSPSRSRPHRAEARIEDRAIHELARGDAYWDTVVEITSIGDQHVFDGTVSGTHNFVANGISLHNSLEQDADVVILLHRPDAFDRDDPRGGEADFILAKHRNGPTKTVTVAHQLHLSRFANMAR

[8] = target: T3, Microphthalmia-associated transcription factor (Homo sapiens, UniProt O75030); experiment: TRPM1 promoter luciferase signal decrease, dose response, MITF inhibitor project, cell-based, SK-MEL-5, cherry-picked, set 3 (AID 493073)
T3 sequence (O75030 whole entry): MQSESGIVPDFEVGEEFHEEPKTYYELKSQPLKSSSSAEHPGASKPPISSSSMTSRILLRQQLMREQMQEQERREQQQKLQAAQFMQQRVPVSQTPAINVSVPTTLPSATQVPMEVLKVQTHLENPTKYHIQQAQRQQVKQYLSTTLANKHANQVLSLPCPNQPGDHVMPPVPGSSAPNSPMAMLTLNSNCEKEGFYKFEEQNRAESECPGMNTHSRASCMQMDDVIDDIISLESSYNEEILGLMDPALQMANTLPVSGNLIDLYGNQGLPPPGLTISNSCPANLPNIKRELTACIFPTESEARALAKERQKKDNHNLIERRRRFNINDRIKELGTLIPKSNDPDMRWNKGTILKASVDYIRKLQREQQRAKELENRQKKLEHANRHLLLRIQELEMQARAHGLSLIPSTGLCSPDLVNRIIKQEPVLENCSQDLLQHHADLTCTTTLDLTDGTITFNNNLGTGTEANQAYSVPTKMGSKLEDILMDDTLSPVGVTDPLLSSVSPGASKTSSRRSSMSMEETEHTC

cells = experiment: cells
[9] = THP-1 cell cytotoxicity, dose response, cytotoxicity control for non-replicating M. tuberculosis project (AID 489025)

Serine/threonine-protein kinase pim-1, sequence (P11309 whole entry): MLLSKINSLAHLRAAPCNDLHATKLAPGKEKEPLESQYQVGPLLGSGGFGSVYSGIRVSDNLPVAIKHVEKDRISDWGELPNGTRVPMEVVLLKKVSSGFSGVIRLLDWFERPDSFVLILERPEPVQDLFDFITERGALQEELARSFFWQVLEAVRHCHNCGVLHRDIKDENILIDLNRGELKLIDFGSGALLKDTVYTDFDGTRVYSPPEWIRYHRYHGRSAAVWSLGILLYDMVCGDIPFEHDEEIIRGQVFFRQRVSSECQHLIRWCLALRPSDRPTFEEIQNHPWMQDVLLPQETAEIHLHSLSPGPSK
Glycogen synthase kinase-3 beta, sequence (P49841 whole entry): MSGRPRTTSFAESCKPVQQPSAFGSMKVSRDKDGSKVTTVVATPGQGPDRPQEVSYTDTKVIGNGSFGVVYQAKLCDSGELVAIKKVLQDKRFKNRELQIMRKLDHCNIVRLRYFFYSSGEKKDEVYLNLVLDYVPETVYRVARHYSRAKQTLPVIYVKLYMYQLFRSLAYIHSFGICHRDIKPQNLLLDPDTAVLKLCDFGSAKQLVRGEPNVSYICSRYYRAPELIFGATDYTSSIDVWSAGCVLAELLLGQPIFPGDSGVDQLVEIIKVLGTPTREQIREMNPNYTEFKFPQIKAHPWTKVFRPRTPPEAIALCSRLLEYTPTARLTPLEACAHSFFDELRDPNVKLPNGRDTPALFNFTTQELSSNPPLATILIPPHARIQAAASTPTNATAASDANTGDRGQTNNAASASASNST
Cyclin-dependent kinase 7, sequence (P50613 whole entry): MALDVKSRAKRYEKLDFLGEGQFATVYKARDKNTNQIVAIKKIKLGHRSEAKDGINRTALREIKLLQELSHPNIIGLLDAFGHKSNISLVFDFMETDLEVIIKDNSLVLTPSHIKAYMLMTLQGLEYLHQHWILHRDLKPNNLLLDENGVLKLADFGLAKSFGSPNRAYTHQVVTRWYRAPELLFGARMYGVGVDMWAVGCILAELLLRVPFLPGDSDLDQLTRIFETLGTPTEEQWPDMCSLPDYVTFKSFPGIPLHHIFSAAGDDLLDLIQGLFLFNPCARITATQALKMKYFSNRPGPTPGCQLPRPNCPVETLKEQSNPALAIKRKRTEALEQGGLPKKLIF
Protein kinase C theta type, sequence (Q04759 whole entry): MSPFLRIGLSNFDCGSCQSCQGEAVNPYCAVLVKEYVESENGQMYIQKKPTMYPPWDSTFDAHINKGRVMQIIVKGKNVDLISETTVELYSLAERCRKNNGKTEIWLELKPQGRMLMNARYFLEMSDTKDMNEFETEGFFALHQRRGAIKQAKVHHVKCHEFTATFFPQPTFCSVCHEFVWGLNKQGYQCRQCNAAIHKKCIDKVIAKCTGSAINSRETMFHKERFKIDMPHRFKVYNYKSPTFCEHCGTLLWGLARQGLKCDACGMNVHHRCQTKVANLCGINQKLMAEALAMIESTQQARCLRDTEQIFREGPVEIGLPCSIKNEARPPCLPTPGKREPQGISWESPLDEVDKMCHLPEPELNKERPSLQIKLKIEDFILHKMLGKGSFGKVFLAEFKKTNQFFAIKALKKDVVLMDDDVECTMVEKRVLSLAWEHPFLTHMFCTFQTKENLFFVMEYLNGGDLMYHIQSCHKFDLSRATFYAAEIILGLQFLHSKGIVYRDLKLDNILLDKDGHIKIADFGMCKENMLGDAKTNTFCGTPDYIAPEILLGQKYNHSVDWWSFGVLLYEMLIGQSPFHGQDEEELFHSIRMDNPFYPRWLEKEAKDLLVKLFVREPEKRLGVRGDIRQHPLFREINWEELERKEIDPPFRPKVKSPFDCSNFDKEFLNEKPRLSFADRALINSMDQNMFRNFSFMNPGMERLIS

NC1CCC(Nc2nc(Cl)cc(-c3c[nH]c4ncccc34)n2)CC1 (stereo not drawn)
Ki [1]: 0.398 µM (active) | pKi [1]: 6.4 | Ki [2]: 0.0501 µM (active) | pKi [2]: 7.3 | Ki [3]: 0.0251 µM (active) | pKi [3]: 7.6 | Ki [4]: 0.000794 µM (active) | pKi [4]: 9.1 | Ki [5]: 0.158 µM (active) | pKi [5]: 6.8 | Ki [6]: 0.126 µM (active) | pKi [6]: 6.9

CCCCCCCCCCCCCCCC[N+](C)(C)C
AC50 [7]: 4.78 µM (active)

CC(C)CC(=O)NC(c1cccs1)c1ccc2cccnc2c1O (stereo not drawn)
AC50 [8]: 3.71 µM (active)

Cc1ccccc1-c1cc2c(nn1)-c1ccccc1C2=O
IC50 (cells): 14.7 µM (active) | AC50 [7]: 6.85 µM (active) | CC50 [9]: 36.2 µM (active)

CCOC(=O)c1ccc(NC2=CC(=O)C(=O)c3ccccc32)cc1
AC50 [8]: 4.3 µM (active) | IC50 (cells): 19.2 µM (active) | AC50 [7]: > 380 µM (inactive) | CC50 [9]: 15.2 µM (active)

OC(CNCCC1C=Nc2ccccc21)Cn1c2ccc(Cl)cc2c2cc(Cl)ccc21 (stereo not drawn)
AC50 [7]: 6.51 µM (active)

O=C(O)C1CN(Cc2ccc(OCc3ccccc3)cc2Cl)C1
Ki [1]: > 3.98 µM (inactive) | Ki [2]: > 3.98 µM (inactive) | Ki [3]: > 2 µM (inactive) | Ki [4]: > 2.51 µM (inactive) | Ki [5]: > 5.01 µM (inactive) | Ki [6]: > 6.31 µM (inactive)
